Data on 15 compounds can be found in patent US20230219965A1 (KSQ Therapeutics, Inc., priority 2020, published 2023).

The test system of data set [1] is Ub-PCNA levels in the nucleus of ES2 cells (USP1 activity). The data set is described as follows: ES2 Ub-PCNA immunofluorescence (IF) assay. Type of data set: cell-based. The following applies: ES2 cells, 3 hours, Ub-PCNA immunofluorescence, read-out: USP1 IC50 (Ub-PCNA). The procedure, abridged: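 AC50 derived from percent Ub-PCNA-positive nuclei, positivity set by a 95% cutoff from untreated-well intensities. Readout by imaging immunofluorescence (anti-Ub-PCNA, DAPI nuclear mask) after methanol fixation. Compound exposure: 3 h at 37° C, 0.3% DMSO final, on cells plated overnight.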

Data set [2] addresses USP1/UAF1 enzyme (Homo sapiens, UniProt O94782). Nature of the data set: USP1/UAF1 deubiquitination assay (ubiquitin-rhodamine 110 substrate). The class given is biochemical. Particulars: read-out: USP1 IC50 (Ub-Rho). The procedure, abridged: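 Cleavage of 150 nM ubiquitin-rhodamine 110 by 0.05 nM USP1/UAF1 was followed as fluorescence (Ex480/Em540, kinetic, 30 min) in Tris-HCl pH 7.8 buffer with EDTA, BSA, DTT and Tween-20. Compounds, top 10 μM, were preincubated with enzyme 10 min; % inhibition against no-enzyme and DMSO wells gave four-parameter IC50s.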

A short description of data set [3]: Liver microsomal metabolic stability, human liver microsomes (HLM). The following applies: for half-life at 1 μM: human, liver microsomes; for t1/2 (min) in HLM: human liver microsomes, 1 μM compound, 1 mg/mL microsomes, NADPH. (Liver microsomes are a subcellular fraction often used to study metabolism.)
The nature of data set [4]: Liver microsomal metabolic stability, rat liver microsomes (RLM). The following applies: 1 μM compound, 1 mg/mL microsomes, NADPH; for half-life at 1 μM: rat, liver microsomes, t1/2 (min) in RLM.
Protocol: Samples were prepared by adding 222.5 μL of a master solution (100 mM phosphate buffer and 1 mg/mL liver microsomes (HLM or RLM)) and 25 μL of a 10 mM NADPH solution to incubation plates, which were then warmed for 10 min. Each compound was separately dissolved in DMSO to prepare 10 mM stock solutions, which were then diluted to 100 μM with acetonitrile. A reaction was started by adding 2.5 μL of the 100 μM solution of each compound to separate incubation plates such that the final concentration of for each compound in each plate was 1 μM.
25 μL aliquots of each sample were taken at 0.5, 5, 10, 15, 20 and 30 minutes, and the reaction was stopped by adding 5 volumes of cold acetonitrile with IS (100 nM alprazolam, 200 nM caffeine and 100 nM tolbutamide). The samples were then centrifuged at 3,220 G for 30 minutes, and 100 μL of the supernatant fluid was mixed with 100 μL of ultra-pure H2O.
The samples were then analyzed by LC-MS/MS. Peak areas were determined from extracted ion chromatograms. Slope values (k) were determined by linear regression of the natural logarithm of the remaining percentage of the compound vs. incubation time curve. The in vitro half-life (in vitro t1/2) was determined from the slope value using the following equation:
Data set [5] is described as follows: ADME solubility determination in PBS at pH 2.0 and pH 7.4. Type of data set: physicochemical. Particulars: for solubility at 24 h: phosphate buffered saline, 25 °C, thermodynamic from solid; for Solubility at pH 2.0 (μM) / Solubility at pH 7.4 (μM): 24 hours. The procedure, abridged: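 Solubility was read by LC-MS/MS on centrifuged supernatants, calibrated to a known-concentration standard and corrected for dilution. Compound, dried down from 10 mM DMSO stock, was equilibrated 24 h at 25° C with shaking in PBS at pH 2.0 or pH 7.4.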

[6] abbreviates: pH 2, aqueous buffer, PBS pH 2.0, 25° C., read-out: Solubility at pH 2.0.
Where [7] appears, read: pH 7.4, aqueous buffer, PBS pH 7.4, 25° C., read-out: Solubility at pH 7.4.

pIC50: −log10 of the molar value. Where two headings read alike, the source gives them in different places.

USP1/UAF1 enzyme, sequence (O94782 whole entry): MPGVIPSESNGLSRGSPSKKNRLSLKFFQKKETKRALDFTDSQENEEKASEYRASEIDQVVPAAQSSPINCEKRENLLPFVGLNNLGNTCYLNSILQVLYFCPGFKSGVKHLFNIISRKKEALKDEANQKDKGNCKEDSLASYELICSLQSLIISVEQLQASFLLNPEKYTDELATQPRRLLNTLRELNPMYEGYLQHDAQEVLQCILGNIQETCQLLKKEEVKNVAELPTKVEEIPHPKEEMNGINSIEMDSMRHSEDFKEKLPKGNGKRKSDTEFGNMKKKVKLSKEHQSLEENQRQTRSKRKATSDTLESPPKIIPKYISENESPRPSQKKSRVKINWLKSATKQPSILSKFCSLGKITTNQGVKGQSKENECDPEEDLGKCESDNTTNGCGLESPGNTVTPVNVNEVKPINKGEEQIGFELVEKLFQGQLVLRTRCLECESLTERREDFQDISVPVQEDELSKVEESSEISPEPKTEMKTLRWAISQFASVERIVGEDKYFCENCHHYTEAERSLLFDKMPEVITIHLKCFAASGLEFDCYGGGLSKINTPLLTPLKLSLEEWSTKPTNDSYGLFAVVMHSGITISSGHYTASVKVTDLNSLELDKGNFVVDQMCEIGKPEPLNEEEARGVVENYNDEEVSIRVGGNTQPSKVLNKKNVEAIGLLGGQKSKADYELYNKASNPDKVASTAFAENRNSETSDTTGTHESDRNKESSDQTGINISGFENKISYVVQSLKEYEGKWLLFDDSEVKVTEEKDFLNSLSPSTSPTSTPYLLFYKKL
USP1/UAF1 enzyme, sequence (Q8TAF3 whole entry partner): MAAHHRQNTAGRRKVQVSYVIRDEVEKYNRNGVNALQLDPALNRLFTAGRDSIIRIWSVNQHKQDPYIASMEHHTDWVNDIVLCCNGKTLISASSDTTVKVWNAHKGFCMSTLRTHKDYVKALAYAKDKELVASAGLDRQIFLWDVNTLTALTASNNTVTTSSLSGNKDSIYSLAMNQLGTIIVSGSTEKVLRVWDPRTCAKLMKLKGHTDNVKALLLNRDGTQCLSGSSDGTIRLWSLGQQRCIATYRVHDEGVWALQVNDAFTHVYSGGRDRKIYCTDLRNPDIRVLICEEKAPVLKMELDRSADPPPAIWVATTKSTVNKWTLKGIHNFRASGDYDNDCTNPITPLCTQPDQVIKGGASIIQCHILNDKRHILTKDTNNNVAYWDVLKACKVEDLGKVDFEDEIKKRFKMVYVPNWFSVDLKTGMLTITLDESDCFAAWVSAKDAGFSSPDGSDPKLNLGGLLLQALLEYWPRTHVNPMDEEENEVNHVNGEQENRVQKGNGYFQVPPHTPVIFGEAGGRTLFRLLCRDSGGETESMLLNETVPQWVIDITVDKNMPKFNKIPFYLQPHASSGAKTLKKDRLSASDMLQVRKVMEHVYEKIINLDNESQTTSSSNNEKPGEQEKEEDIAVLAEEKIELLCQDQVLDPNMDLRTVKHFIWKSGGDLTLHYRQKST

For the compound `CCn1cc(C(F)(F)F)nc1-c1ccc([C@H](C)N2C(=O)CCn3nc(-c4c(OC)ncnc4C4CC4)nc32)cc1Cl` [Example 211], the pIC50 in data set [1] (Homo sapiens, ES-2) was above 7.00; in data set [2], above 7.00. The results for the half-life at 1 μM in data set [3] and in data set [4] were above 25 min and below 25 min, respectively. Further, the values for the solubility at 24 h in data set [5] (setting [6]) and in data set [5] (setting [7]) were at least 10 µM and below 10 µM, respectively.
Consider `CCn1cc(C(F)(F)F)nc1-c1ccc([C@H](C)N2C(=O)CCn3nc(-c4c(OC)ncnc4C4CC4)nc32)cc1Cl` [Example 212], for which the pIC50 in data set [1] and in data set [2] was above 7.00 each time. Besides, in data set [3], the “t1/2 (min) in HLM” value is “++ (“++” indicates 25 minutes greater)”. The “t1/2 (min) in RLM” value in data set [4] was “++ (“++” indicates 25 minutes greater)”. Besides, the “Solubility at pH 2.0 (μM)” value in data set [5] (PBS pH 2.0, 25° C.) was “++ (“++” indicates 10 μM or greater)”. The “Solubility at pH 7.4 (μM)” value in data set [5] (PBS pH 7.4, 25° C.) is “++ (“++” indicates 10 μM or greater)”.
Take `COc1nccc(C2CC2)c1-c1nc2n(n1)CCC(=O)N2Cc1ccc(-c2nc(C(F)(F)F)cn2C(C)C)c(F)c1` [Example 213]: the negative-log IC50 (pIC50) in data set [1] (Homo sapiens, ES-2) was 6.30 to 7.00; in data set [2] it was above 7.00. Besides, the half-life at 1 μM in data set [3] and in data set [4] was above 25 min throughout. For the same compound, the solubility at 24 h in data set [5] (setting [6]) and in data set [5] (setting [7]) was below 10 µM each time.
As for `COc1c(CN2C(=O)CCn3nc(-c4c(Cl)cnn4C(C)C)nc32)ccc(-c2nc(C(F)(F)F)cn2C(C)C)c1F` [Example 216], the negative-log IC50 (pIC50) was 6.30 to 7.00 in data set [1] (Homo sapiens, ES-2) and above 7.00 in data set [2]. For the same compound, the half-life at 1 μM in data set [3] and in data set [4] was above 25 min each time. For the same compound, the solubility at 24 h in data set [5] (setting [6]) and in data set [5] (setting [7]) was below 10 µM in each case.
Consider `CCn1cc(C(F)(F)F)nc1-c1ccc(CN2C(=O)CCn3nc(-c4c(OC)ncnc4C4CC4)nc32)c(OC)c1F` [Example 217], for which the pIC50 in data set [1] (Homo sapiens, ES-2) is above 7.00; in data set [2] it was above 7.00. Besides, the half-life at 1 μM in data set [3] and in data set [4] was above 25 min in each case. Besides, the solubility at 24 h in data set [5] (setting [6]) and in data set [5] (setting [7]) was at least 10 µM each time.
In the case of `Cc1cnn(C(C)C)c1-c1nc2n(n1)CCCN2Cc1ccc(-c2nc(C(F)(F)F)cn2C)cc1` [Example 221, 2-(1-isopropyl-4-methyl-1H-pyrazol-5-yl)-4-(4-(1-methyl-4-(trifluoromethyl)-1H-imidazol-2-yl)benzyl)-4,5,6,7-tetrahydro-[1,2,4]triazolo[1,5-α]pyrimidine], the negative logarithm of the IC50 (pIC50) in data set [1] (Homo sapiens, ES-2) was above 7.00; in data set [2], above 7.00. The half-life at 1 μM in data set [3] and in data set [4] was below 25 min each time. For the same compound, the solubility at 24 h in data set [5] (setting [6]) and in data set [5] (setting [7]) was at least 10 µM in each case.
`Cc1cnn(C(C)C)c1-c1nc2n(n1)CCCN2Cc1ccc(-c2nc(C(F)(F)F)cn2C(C)C)cc1` [Example 222, 4-(4-(1-isopropyl-4-(trifluoromethyl)-1H-imidazol-2-yl)benzyl)-2-(1-isopropyl-4-methyl-1H-pyrazol-5-yl)-4,5,6,7-tetrahydro-[1,2,4]triazolo[1,5-a]pyrimidine]: the pIC50 in data set [1] (Homo sapiens, ES-2) is above 7.00; in data set [2], above 7.00. Also, the half-life at 1 μM in data set [3] and in data set [4] was below 25 min throughout. The solubility at 24 h was at least 10 µM in data set [5] (setting [6]) and below 10 µM in data set [5] (setting [7]).
In the case of `CC(C)n1ncc(Cl)c1-c1cc2n(n1)CC(C)(O)C(=O)N2Cc1ccc(-c2nc(C(F)(F)F)cn2C)cc1` (stereo not drawn) [Example 232, 2-(4-chloro-1-isopropyl-1H-pyrazol-5-yl)-6-hydroxy-6-methyl-4-(4-(1-methyl-4-(trifluoromethyl)-1H-imidazol-2-yl)benzyl)-6,7-dihydropyrazolo[1,5-α]pyrimidin-5(4H)-one], the pIC50 in data set [1] (Homo sapiens, ES-2) was 6.30 to 7.00; in data set [2] it was 6.30 to 7.00. The half-life at 1 μM in data set [3] and in data set [4] was above 25 min each time. Besides, the solubility at 24 h in data set [5] (setting [6]) and in data set [5] (setting [7]) was below 10 µM throughout.
As for `CCn1cc(C(F)(F)F)nc1-c1ccc(CN2C(=O)C(N)Cn3nc(-c4c(Cl)cnn4C(C)C)cc32)cc1` (stereo not drawn) [Example 233, 6-amino-2-(4-chloro-1-isopropyl-1H-pyrazol-5-yl)-4-(4-(1-ethyl-4-(trifluoromethyl)-1H-imidazol-2-yl)benzyl)-6,7-dihydropyrazolo[1,5-α]pyrimidin-5(4H)-one], the pIC50 in data set [1] is 6.30 to 7.00; in data set [2], above 7.00. Further, in data set [3], the “t1/2 (min) in HLM” value is “++ (“++” indicates 25 minutes greater)”. In addition, the “t1/2 (min) in RLM” value in data set [4] is “++ (“++” indicates 25 minutes greater)”. Moreover, the “Solubility at pH 2.0 (μM)” value in data set [5] (PBS pH 2.0, 25° C.) is reported as “++ (“++” indicates 10 μM or greater)”. The “Solubility at pH 7.4 (μM)” value in data set [5] (PBS pH 7.4, 25° C.) is listed as “+ (“+” indicates less than 10 μM)”.
Consider `CCn1cc(C(F)(F)F)nc1-c1ccc(CN2C(=O)C(N(C)C)Cn3nc(-c4c(Cl)cnn4C(C)C)cc32)cc1` (stereo not drawn) [Example 235, 2-(4-chloro-1-isopropyl-1H-pyrazol-5-yl)-6-(dimethylamino)-4-(4-(1-ethyl-4-(trifluoromethyl)-1H-imidazol-2-yl)benzyl)-6,7-dihydropyrazolo[1,5-α]pyrimidin-5(4H)-one], for which the pIC50 in data set [1] (Homo sapiens, ES-2) was 6.30 to 7.00; in data set [2] it was above 7.00. Besides, the half-life at 1 μM in data set [3] and in data set [4] was below 25 min each time. For the same compound, the values for the solubility at 24 h in data set [5] (setting [6]) and in data set [5] (setting [7]) were at least 10 µM and below 10 µM, respectively.
Regarding `CCn1cc(C(F)(F)F)nc1-c1ccc(CN2C(=O)C(NC)Cn3nc(-c4c(Cl)cnn4C(C)C)cc32)cc1` (stereo not drawn) [Example 236, 2-(4-chloro-1-isopropyl-1H-pyrazol-5-yl)-4-(4-(1-ethyl-4-(trifluoromethyl)-1H-imidazol-2-yl)benzyl)-6-(methylamino)-6,7-dihydropyrazolo[1,5-α]pyrimidin-5(4H)-one], the pIC50 was below 6.30 in data set [1] (Homo sapiens, ES-2) and 6.30 to 7.00 in data set [2]. The half-life at 1 μM in data set [3] and in data set [4] was below 25 min throughout. Moreover, the figures for the solubility at 24 h in data set [5] (setting [6]) and in data set [5] (setting [7]) were at least 10 µM and below 10 µM, respectively.
Turning to `CCn1cc(C(F)(F)F)nc1-c1ccc(NC2CCCn3nc(-c4c(Cl)cnn4C(C)C)cc32)cc1` (stereo not drawn) [Example 237, 2-(4-chloro-1-isopropyl-1H-pyrazol-5-yl)-N-(4-(1-ethyl-4-(trifluoromethyl)-1H-imidazol-2-yl)phenyl)-4,5,6,7-tetrahydropyrazolo[1,5-α]pyridin-4-amine], the pIC50 in data set [1] (Homo sapiens, ES-2) is above 7.00; in data set [2], above 7.00. For the same compound, the half-life at 1 μM in data set [3] is above 25 min; in data set [4] it was below 25 min. Further, the solubility at 24 h in data set [5] (setting [6]) and in data set [5] (setting [7]) was below 10 µM throughout.
In the case of `CCn1cc(C(F)(F)F)nc1-c1ccc(NC2CCCn3nc(-c4c(OC)ncnc4C4CC4)cc32)cc1` (stereo not drawn) [Example 240, 2-(4-cyclopropyl-6-methoxypyrimidin-5-yl)-N-(4-(1-ethyl-4-(trifluoromethyl)-1H-imidazol-2-yl)phenyl)-4,5,6,7-tetrahydropyrazolo[1,5-a]pyridin-4-amine], the negative logarithm of the IC50 (pIC50) is above 7.00 in data set [1] (Homo sapiens, ES-2) and above 7.00 in data set [2]. Further, the half-life at 1 μM in data set [3] and in data set [4] was above 25 min throughout. The values for the solubility at 24 h in data set [5] (setting [6]) and in data set [5] (setting [7]) were at least 10 µM and below 10 µM, respectively.
For `CCn1cc(C(F)(F)F)nc1-c1ccc(NC2CCCn3nc(-c4c(Cl)cnn4C(C)C)cc32)cc1F` (stereo not drawn) [Example 241, 2-(4-chloro-1-isopropyl-1H-pyrazol-5-yl)-N-(4-(1-ethyl-4-(trifluoromethyl)-1H-imidazol-2-yl)-3-fluorophenyl)-4,5,6,7-tetrahydropyrazolo[1,5-a]pyridin-4-amine], the pIC50 was 6.30 to 7.00 in data set [1] (Homo sapiens, ES-2) and above 7.00 in data set [2]. The half-life at 1 μM in data set [3] and in data set [4] was above 25 min in each case. Further, the solubility at 24 h in data set [5] (setting [6]) and in data set [5] (setting [7]) was below 10 µM in each case.
Turning to `Cc1cc(C(F)(F)F)nn1-c1ccc(NC2CCCn3nc(-c4c(Cl)cnn4C(C)C)cc32)cc1` (stereo not drawn) [Example 244, 2-(4-chloro-1-isopropyl-1H-pyrazol-5-yl)-N-(4-(5-methyl-3-(trifluoromethyl)-1H-pyrazol-1-yl)phenyl)-4,5,6,7-tetrahydropyrazolo[1,5-a]pyridin-4-amine], the pIC50 in data set [1] (Homo sapiens, ES-2) is above 7.00; in data set [2], above 7.00. The half-life at 1 μM in data set [3] and in data set [4] was above 25 min each time. For the same compound, the solubility at 24 h in data set [5] (setting [6]) and in data set [5] (setting [7]) was below 10 µM throughout.

What is called pIC50 is the IC50 on a negative log10 scale, so that one unit is a factor of ten. The term half-life denotes the time in which the quantity being followed falls by half. Lower therefore signals fast loss. Broadly, the solubility is the concentration that dissolves in the medium under given conditions.
